Results on one compound are retold here after publication PMC6536371 (Chemical biology & drug design, 2018).

This test deals with MT1-MMP (Homo sapiens, UniProt P50281). The experiment in a line: FRET triple-helical peptide. It counts as biochemical.

For the compound `CNC(=O)[C@@H](NC(=O)[C@H](CC(C)C)[C@H](O)C(=O)NO)C(C)(C)C` [marimastat], half-maximal inhibition (IC50) was put at 19 ± 3 nM.
